Test results published in patent publication US7265107B2, “Rifamycin C-11 oxime cyclo derivatives effective against drug-resistant microbes” (Cumbre Pharmaceuticals Inc., priority 2004, dated 2007).
≈ marks a conversion by molar mass, not a printed value.

Tests used:
Format in all cases: cell-based
[1] = tested on: Staphylococcus aureus EN1252a gvrA^S84L grlA^S80F; assay: microbe, parasite or virus in culture; conditions: cipR, Cation-Adjusted Mueller-Hinton Broth, 37° C., read-out: Antimicrobial activity (MIC)
Procedure: Representative compounds were assayed for antimicrobial activity as follows: Minimum Inhibitory Concentrations (“MICs”) were determined by the microbroth dilution method as per NCCLS guidelines (National Committee for Clinical Laboratory Standards. 2000. Methods for dilution antimicrobial susceptibility tests for bacteria that grow aerobically, 5th ed. M7-A5. National Committee for Clinical Laboratory Standards, Wayne, Pa.), except that all growth incubations were conducted at 37° C. Bacterial cultures were tested in the following bacteriological media: S. aureus, S. epidermidis, and E. coli in Cation-Adjusted Mueller-Hinton Broth, S. pneumoniae in THY Broth supplemented with 1 mg/mL catalase under 5% CO2 atmosphere, S. pyogenes in THY Broth, E. faecalis in BHI Broth, H. influenzae in BHI Broth supplemented with 0.75 μL of 1 mg/mL NAD and 150 μL of 1 mg/ml hematin per 5 mL, and M. smegmatis in Middlebrook Broth plus ADC Enrichment.
S. aureus EN1252a gyrA^S84L grlA^S80F is a quinolone-resistant strain due to double mutations to the genes confer DNA gyrase and topoisomerase IV.

[2] = tested on: Streptococcus pneumoniae ATCC6303; conditions: rifS, THY Broth with 1 mg/mL catalase, 5% CO2, 37° C., read-out: Antimicrobial activity (MIC)
[3] = tested on: Enterococcus faecalis ATCC29212; conditions: rifS, BHI Broth, 37° C., read-out: Antimicrobial activity (MIC)
[4] = tested on: Haemophilus influenzae ATCC10211; conditions: rifS, BHI Broth with NAD and hematin, 37° C., read-out: Antimicrobial activity (MIC)

| SMILES | MIC [1] [ng/mL] | MIC [2] [ng/mL] | MIC [3] [ng/mL] | MIC [4] [ng/mL] |
| --- | --- | --- | --- | --- |
| CO[C@H]1/C=C/O[C@@]2(C)Oc3c(C)c(O)c4c(=O)c(c5oc6cc(N7CC(C)NC(C)C7)cc(O)c6nc-5c4c3/C2=N/O)NC(=O)/C(C)=C\C=C\[C@H](C)[C@H](O)[C@@H](C)[C@@H](O)[C@@H](C)[C@H](OC(C)=O)[C@@H]1C (stereo partly drawn) [Example 14, 11-Deoxy-11-hydroxyimino-1′,4-didehydro-1-deoxy-1,4-dihydro-3′-hydroxy-5′-(3,5-dimethyl-1-piperazinyl)-1-oxo-rifamycin VIII] | 0.5 to 125 (≈ 0.539 to 135 nM) | 0.06 to 31 (≈ 0.0647 to 33.4 nM) | 500 to 31200 (≈ 539 to 33700 nM) | 125 to 8000 (≈ 135 to 8620 nM) |
| CO[C@H]1/C=C/O[C@@]2(C)Oc3c(C)c(O)c4c(=O)c(c5oc6cc(N7CCC(N8CCCCC8)CC7)cc(O)c6nc-5c4c3/C2=N/O)NC(=O)/C(C)=C\C=C\[C@H](C)[C@H](O)[C@@H](C)[C@@H](O)[C@@H](C)[C@H](OC(C)=O)[C@@H]1C [Example 13, 11-Deoxy-11-hydroxyimino-1′,4-didehydro-1-deoxy-1,4-dihydro-3′-hydroxy-5′-[(1,4′)-bipiperidinyl-1′-yl]-1-oxo-rifamycin VIII] | 0.5 to 125 (≈ 0.509 to 127 nM) | 0.06 to 31 (≈ 0.0611 to 31.6 nM) | 500 to 31200 (≈ 509 to 31800 nM) | 125 to 8000 (≈ 127 to 8150 nM) |
| CO[C@H]1/C=C/O[C@@]2(C)Oc3c(C)c(O)c4c(c3/C2=N/OCC(=O)O)C2=NC3(CCN(CC(C)C)CC3)NC2=C(NC(=O)/C(C)=C\C=C\[C@H](C)[C@H](O)[C@@H](C)[C@@H](O)[C@@H](C)[C@H](OC(C)=O)[C@@H]1C)C4=O [Example 21, 11-Deoxy-11-(4-carboxymethoxyimino)-1′,4-didehydro-1-deoxy-1,4-dihydro-5′-(2-methylpropyl)-1-oxo-rifamycin XIV] | 0.5 to 125 (≈ 0.543 to 136 nM) | 0.06 to 31 (≈ 0.0652 to 33.7 nM) | 500 to 31200 (≈ 543 to 34000 nM) | 125 to 8000 (≈ 136 to 8690 nM) |
| CO[C@H]1/C=C/O[C@@]2(C)Oc3c(C)c(O)c4c(=O)c(c5oc6cc(N7CCN(C)CC7)cc(O)c6nc-5c4c3/C2=N/O)NC(=O)/C(C)=C\C=C\[C@H](C)[C@H](O)[C@@H](C)[C@@H](O)[C@@H](C)[C@H](OC(C)=O)[C@@H]1C [Example 7, 11-Deoxy-11-hydroxyimino-1′,4-didehydro-1-deoxy-1,4-dihydro-3′-hydroxy-5′-(4-methyl-i-piperazinyl)-1-oxo-rifamycin VIII] | 0.5 to 125 (≈ 0.547 to 137 nM) | 0.06 to 31 (≈ 0.0656 to 33.9 nM) | 500 to 31200 (≈ 547 to 34200 nM) | 125 to 8000 (≈ 137 to 8750 nM) |
| CCCCN1CCN(c2cc(O)c3nc4c5c6c7c(C)c(O)c5c(=O)c(c-4oc3c2)NC(=O)/C(C)=C\C=C\[C@H](C)[C@H](O)[C@@H](C)[C@@H](O)[C@@H](C)[C@H](OC(C)=O)[C@H](C)[C@@H](OC)/C=C/O[C@@](C)(O7)/C6=N\O)CC1 [Example 10, 11-Deoxy-11-hydroxyimino-1′,4-didehydro-1-deoxy-1,4-dihydro-3′-hydroxy-5′-(4-butyl-1-piperazinyl)-1-oxo-rifamycin VIII] | 0.5 to 125 (≈ 0.523 to 131 nM) | 0.06 to 31 (≈ 0.0628 to 32.4 nM) | 500 to 31200 (≈ 523 to 32700 nM) | 125 to 8000 (≈ 131 to 8370 nM) |
| CO[C@H]1/C=C/O[C@@]2(C)Oc3c(C)c(O)c4c(=O)c(c5oc6cc(N7CCN(C(C)C)CC7)cc(O)c6nc-5c4c3/C2=N/O)NC(=O)/C(C)=C\C=C\[C@H](C)[C@H](O)[C@@H](C)[C@@H](O)[C@@H](C)[C@H](OC(C)=O)[C@@H]1C [Example 9, 11-Deoxy-11-hydroxyimino-1′,4-didehydro-1-deoxy-1,4-dihydro-3′-hydroxy-5′-(4-isopropyl-1-piperazinyl)-1-oxo-rifamycin VIII] | 0.5 to 125 (≈ 0.531 to 133 nM) | 0.06 to 31 (≈ 0.0637 to 32.9 nM) | 500 to 31200 (≈ 531 to 33200 nM) | 125 to 8000 (≈ 133 to 8490 nM) |
| CCN1CCN(c2cc(O)c3nc4c5c6c7c(C)c(O)c5c(=O)c(c-4oc3c2)NC(=O)/C(C)=C\C=C\[C@H](C)[C@H](O)[C@@H](C)[C@@H](O)[C@@H](C)[C@H](OC(C)=O)[C@H](C)[C@@H](OC)/C=C/O[C@@](C)(O7)/C6=N\O)CC1 [Example 8, 11-Deoxy-11-hydroxyimino-1′,4-didehydro-1-deoxy-1,4-dihydro-3′-hydroxy-5′-(4-ethyl-1-piperazinyl)-1-oxo-rifamycin VIII] | 0.5 to 125 (≈ 0.539 to 135 nM) | 0.06 to 31 (≈ 0.0647 to 33.4 nM) | 500 to 31200 (≈ 539 to 33700 nM) | 125 to 8000 (≈ 135 to 8620 nM) |
| CO[C@H]1/C=C/O[C@@]2(C)Oc3c(C)c(O)c4c(=O)c(c5oc6cc(N7CCN(CC(C)C)CC7)ccc6nc-5c4c3/C2=N/O)NC(=O)/C(C)=C\C=C\[C@H](C)[C@H](O)[C@@H](C)[C@@H](O)[C@@H](C)[C@H](OC(C)=O)[C@@H]1C [Example 20, 11-Deoxy-11-hydroxyimino-1′,4-didehydro-1-deoxy-1,4-dihydro-5′-(4-isobutyl-1-piperazinyl)-1-oxo-rifamycin VIII] | 0.5 to 125 (≈ 0.532 to 133 nM) | 0.06 to 31 (≈ 0.0638 to 33 nM) | 500 to 31200 (≈ 532 to 33200 nM) | 125 to 8000 (≈ 133 to 8510 nM) |
| CO[C@H]1/C=C/O[C@@]2(C)Oc3c(C)c(O)c4c(=O)c(c5oc6cc(N7CC[C@@H](N)C7)cc(O)c6nc-5c4c3/C2=N/O)NC(=O)/C(C)=C\C=C\[C@H](C)[C@H](O)[C@@H](C)[C@@H](O)[C@@H](C)[C@H](OC(C)=O)[C@@H]1C [Example 15, 11-Deoxy-11-hydroxyimino-1′,4-didehydro-1-deoxy-1,4-dihydro-3′-hydroxy-5′-(3-amino-pyrrolidin-1-yl)-1-oxo-rifamycin VIII] | 0.5 to 125 (≈ 0.556 to 139 nM) | 0.06 to 31 (≈ 0.0667 to 34.4 nM) | 500 to 31200 (≈ 556 to 34700 nM) | 125 to 8000 (≈ 139 to 8890 nM) |
| CO[C@H]1/C=C/O[C@@]2(C)Oc3c(C)c(O)c4c(=O)c(c5oc6cc(N7CCOCC7)cc(O)c6nc-5c4c3/C2=N/O)NC(=O)/C(C)=C\C=C\[C@H](C)[C@H](O)[C@@H](C)[C@@H](O)[C@@H](C)[C@H](OC(C)=O)[C@@H]1C [Example 6, 11-Deoxy-11-hydroxyimino-1′,4-didehydro-1-deoxy-1,4-dihydro-3′-hydroxy-5′-(morpholin-4-yl)-1-oxo-rifamycin VIII] | 0.5 to 125 (≈ 0.555 to 139 nM) | 0.06 to 31 (≈ 0.0666 to 34.4 nM) | 500 to 31200 (≈ 555 to 34700 nM) | 125 to 8000 (≈ 139 to 8880 nM) |
| CO[C@H]1/C=C/O[C@@]2(C)Oc3c(C)c(O)c4c(=O)c(c5oc6cc(N7CCN(CC8CCN(C)CC8)CC7)cc(O)c6nc-5c4c3/C2=N/O)NC(=O)/C(C)=C\C=C\[C@H](C)[C@H](O)[C@@H](C)[C@@H](O)[C@@H](C)[C@H](OC(C)=O)[C@@H]1C [Example 12, 11-Deoxy-11-hydroxyimino-1′,4-didehydro-1-deoxy-1,4-dihydro-3′-hydroxy-5 V-[4-(1-Methyl-piperidin-4-ylmethyl)-1-piperazinyl]-1-oxo-rifamycin VII] | 0.5 to 125 (≈ 0.494 to 124 nM) | 0.06 to 31 (≈ 0.0593 to 30.7 nM) | 500 to 31200 (≈ 494 to 30900 nM) | 125 to 8000 (≈ 124 to 7910 nM) |
| CO[C@H]1/C=C/O[C@@]2(C)Oc3c(C)c(O)c4c(=O)c(c5oc6cc(N7CCN(CCOCCO)CC7)cc(O)c6nc-5c4c3/C2=N/O)NC(=O)/C(C)=C\C=C\[C@H](C)[C@H](O)[C@@H](C)[C@@H](O)[C@@H](C)[C@H](OC(C)=O)[C@@H]1C [Example 17, 11-Deoxy-11-hydroxyimino-1′,4-didehydro-1-deoxy-1,4-dihydro-3′-hydroxy-5′-{4-[2-(2-hydroxy-ethoxy)-ethyl]-piperazin-1-yl}-1-oxo-rifamycin VIII] | 0.5 to 125 (≈ 0.506 to 127 nM) | 0.06 to 31 (≈ 0.0607 to 31.4 nM) | 500 to 31200 (≈ 506 to 31600 nM) | 125 to 8000 (≈ 127 to 8100 nM) |
| COc1c(N2CCN(C(=O)CO/N=C3/c4c5c(C)c(O)c6c4C4=NC7(CCN(CC(C)C)CC7)NC4=C(NC(=O)/C(C)=C\C=C\[C@H](C)[C@H](O)[C@@H](C)[C@@H](O)[C@@H](C)[C@H](OC(C)=O)[C@H](C)[C@@H](OC)/C=C/O[C@@]3(C)O5)C6=O)C(C)C2)c(F)cc2c(=O)c(C(=O)O)cn(C3CC3)c12 (stereo partly drawn) [Example 22, 11-Deoxy-11-{2-oxo-2-[2-methyl4-(3-carboxy-1-cyclopropl-2-methoxy-6-fluoro-4-oxo-1,4-dihydroquinolin-7-yl)piperazin-1-yl]ethoxyimino}-1′,4-didehydro-1-deoxy-1,4-dihydro-5′-(2-methylpropyl)-1-oxo-rifamycin XIV] | 0.5 to 125 (≈ 0.391 to 97.9 nM) | 0.06 to 31 (≈ 0.047 to 24.3 nM) | 500 to 31200 (≈ 391 to 24500 nM) | 125 to 8000 (≈ 97.9 to 6260 nM) |
| CO[C@H]1/C=C/O[C@@]2(C)Oc3c(C)c(O)c4c(=O)c(c5oc6cc(N7CCCC7)cc(O)c6nc-5c4c3/C2=N/O)NC(=O)/C(C)=C\C=C\[C@H](C)[C@H](O)[C@@H](C)[C@@H](O)[C@@H](C)[C@H](OC(C)=O)[C@@H]1C [Example 16, 11-Deoxy-11-hydroxyimino-1′,4-didehydro-1-deoxy-1,4-dihydro-3′-hydroxy-5′-(pyrrolidin-1-yl)-1-oxo-rifamycin VIII] | 0.5 to 125 (≈ 0.565 to 141 nM) | 0.06 to 31 (≈ 0.0678 to 35 nM) | 500 to 31200 (≈ 565 to 35300 nM) | 125 to 8000 (≈ 141 to 9040 nM) |
| CO[C@H]1/C=C/O[C@@]2(C)Oc3c(C)c(O)c4c(=O)c(c5oc6cc(N7CCN(CC8CCCCC8)CC7)cc(O)c6nc-5c4c3/C2=N/O)NC(=O)/C(C)=C\C=C\[C@H](C)[C@H](O)[C@@H](C)[C@@H](O)[C@@H](C)[C@H](OC(C)=O)[C@@H]1C [Example 11, 11-Deoxy-11-hydroxyimino-1′,4-didehydro-1-deoxy-1,4-dihydro-3′-hydroxy-5′-(4-cyclohexylmethyl-1-piperazinyl)-1-oxo-rifamycin VIII] | 0.5 to 125 (≈ 0.502 to 125 nM) | 0.06 to 31 (≈ 0.0602 to 31.1 nM) | 500 to 31200 (≈ 502 to 31400 nM) | 125 to 8000 (≈ 125 to 8030 nM) |
